# Earlier results as cited in patent publication US20070112055A1, “Crystalline forms of almotriptan and processes for their preparation” (Glenmark Pharmaceuticals Limited, priority 2005, published 2007).
# Key:
# [1] = molecular target: T1, 5-HT1A receptors (Homo sapiens, UniProt P08908); settings: general statement of the related art
# T1 sequence (P08908 1-422): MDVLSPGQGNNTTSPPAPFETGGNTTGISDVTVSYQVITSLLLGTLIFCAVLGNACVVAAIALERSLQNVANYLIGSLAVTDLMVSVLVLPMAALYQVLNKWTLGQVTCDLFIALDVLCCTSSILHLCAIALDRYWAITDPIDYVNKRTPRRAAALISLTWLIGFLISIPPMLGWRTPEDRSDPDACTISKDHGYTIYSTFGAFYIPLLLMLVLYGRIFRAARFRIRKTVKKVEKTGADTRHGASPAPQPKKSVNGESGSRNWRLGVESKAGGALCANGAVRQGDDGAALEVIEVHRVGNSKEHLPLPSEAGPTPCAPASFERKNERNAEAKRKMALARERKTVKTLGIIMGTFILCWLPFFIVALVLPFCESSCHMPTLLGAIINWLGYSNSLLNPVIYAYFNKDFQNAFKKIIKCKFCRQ
# [2] = molecular target: 5-HT1D receptors (Homo sapiens, UniProt P28221); settings: general statement of the related art
# 5-HT1D receptors, sequence (P28221 whole entry): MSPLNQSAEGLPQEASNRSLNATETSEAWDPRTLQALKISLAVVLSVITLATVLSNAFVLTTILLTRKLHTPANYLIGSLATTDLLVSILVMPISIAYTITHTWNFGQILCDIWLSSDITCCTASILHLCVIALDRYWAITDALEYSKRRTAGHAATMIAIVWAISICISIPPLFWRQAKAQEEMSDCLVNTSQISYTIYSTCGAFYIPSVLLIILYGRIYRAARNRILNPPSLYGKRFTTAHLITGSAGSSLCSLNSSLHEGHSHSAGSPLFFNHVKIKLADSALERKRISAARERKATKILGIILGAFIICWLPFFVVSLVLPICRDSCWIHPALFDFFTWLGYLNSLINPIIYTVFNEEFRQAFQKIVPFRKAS
# [3] = molecular target: 5-HT7 receptors (Homo sapiens, UniProt P34969); settings: general statement of the related art
# 5-HT7 receptors, sequence (P34969 whole entry): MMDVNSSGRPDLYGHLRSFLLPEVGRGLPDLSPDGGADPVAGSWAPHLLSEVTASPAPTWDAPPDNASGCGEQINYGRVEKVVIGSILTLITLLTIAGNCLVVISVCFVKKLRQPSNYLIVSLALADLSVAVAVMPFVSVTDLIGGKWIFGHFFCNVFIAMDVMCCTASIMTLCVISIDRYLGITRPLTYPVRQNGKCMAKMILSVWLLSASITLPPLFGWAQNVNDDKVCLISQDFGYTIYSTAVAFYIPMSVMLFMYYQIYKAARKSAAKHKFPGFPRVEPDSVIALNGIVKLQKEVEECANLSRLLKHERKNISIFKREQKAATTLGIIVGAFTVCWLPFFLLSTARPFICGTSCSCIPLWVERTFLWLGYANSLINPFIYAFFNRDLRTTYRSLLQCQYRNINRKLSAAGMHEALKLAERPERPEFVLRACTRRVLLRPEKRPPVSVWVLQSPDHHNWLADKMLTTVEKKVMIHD
# [4] = molecular target: 5-HT1B receptors (Homo sapiens, UniProt P28222); settings: general statement of the related art
# 5-HT1B receptors, sequence (P28222 whole entry): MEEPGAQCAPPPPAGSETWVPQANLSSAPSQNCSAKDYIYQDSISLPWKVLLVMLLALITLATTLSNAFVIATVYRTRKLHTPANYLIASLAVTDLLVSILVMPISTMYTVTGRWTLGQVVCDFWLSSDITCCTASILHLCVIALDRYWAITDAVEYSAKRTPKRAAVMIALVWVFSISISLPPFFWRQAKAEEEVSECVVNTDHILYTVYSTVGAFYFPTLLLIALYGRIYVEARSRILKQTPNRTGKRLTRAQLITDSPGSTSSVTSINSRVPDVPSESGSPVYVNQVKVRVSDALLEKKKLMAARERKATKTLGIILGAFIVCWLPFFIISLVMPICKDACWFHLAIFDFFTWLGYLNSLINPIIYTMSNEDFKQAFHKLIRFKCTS
# [5] = molecular target: T2, 5-HT1F receptors (Homo sapiens, UniProt P30939); settings: general statement of the related art
# T2 sequence (P30939 1-366): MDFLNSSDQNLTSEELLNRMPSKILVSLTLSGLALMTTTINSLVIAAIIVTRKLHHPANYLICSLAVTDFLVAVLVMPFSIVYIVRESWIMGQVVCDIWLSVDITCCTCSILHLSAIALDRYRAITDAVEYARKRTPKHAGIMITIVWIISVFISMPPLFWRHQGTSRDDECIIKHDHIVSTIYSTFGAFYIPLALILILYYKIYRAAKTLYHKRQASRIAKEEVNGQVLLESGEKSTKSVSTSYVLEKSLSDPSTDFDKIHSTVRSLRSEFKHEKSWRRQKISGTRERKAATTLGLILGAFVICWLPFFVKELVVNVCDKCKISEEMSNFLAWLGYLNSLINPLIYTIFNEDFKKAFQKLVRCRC
# [6] = amorphous form compared with the crystalline forms
Structure (SMILES),affinity for 5-HT1A receptors [1],affinity to 5-HT1D receptors [2],affinity for 5-HT7 receptors [3],affinity to 5-HT1B receptors [4],affinity to 5-HT1F receptors [5],bioavailability [6]
"CN(C)CCc1c[nH]c2ccc(CS(=O)(=O)N3CCCC3)cc12 [Almotriptan, 1-[[[3-[2-(dimethylamino)ethyl]indol-5-yl]methyl]sulfonyl]pyrrolidine]",weak affinity,high affinity,weak affinity,high affinity,high affinity,–
CO/N=C(\C(=O)N[C@@H]1C(=O)N2C(C(=O)OC(C)OC(C)=O)=C(COC(N)=O)CS[C@H]12)c1ccco1 (stereo partly drawn) [cefuroxime axietil],–,–,–,–,–,much higher bioavailability than the crystalline forms
